Consider two compounds from patent US20150265644A1, “THERAPEUTIC METHODS AND COMPOSITIONS FOR TREATING DIABETES UTILIZING DITERPENOID COMPOUNDS” (Orient Europharma Co., Ltd., priority 2014, published 2015).

Assay [1] is described as follows: Plasma insulin level before and after treatment in mice. In kind it is in vivo. Here is the method: The 4-week-old male ICR mice were purchased from the Animal Center of the College of Medicine, National Taiwan University (Taipei, Taiwan) with delicate humane care. This animal study was conducted by following the University ethical guidelines and the ‘Guide for the Care and Use of Laboratory Animals’ published by the US National Institutes of Health (NIH publication no. 85-23, revised 1996). The animal experiments were approved by the Institutional Animal Care and Use Committee (IACUC) of the National Taiwan University (IACUC No. 20110073). Animals were housed in a room at the constant temperature, 22±1° C., with 12 hours light and dark cycles.
(§1) After three days of acclimatization, the mice had free access to a standard rodent chow (normal mice), a standard rodent chow after single 250 mgkg^−1 streptozotocin (STZ) intraperitoneal injection (TIDM mice), and a fat-rich chow diet and fructose-sweetened water (T2DM mice) for 4 weeks. The induction of Type 1 DM was assessed and confirmed when the mice had plasma glucose levels ≧350 mgdL^−1, accompanied with polyuria, hyperphagia and decreased body weight. The induction Type 2 DM in the mice was assessed by measuring fasting plasma glucose levels and confirmed when plasma glucose level was ≧150 mgdL^−1 after the 4-week induction. The animals were assigned randomly into three groups, with seven animals in each group. In group I, the mice were treated with vehicle, 2% DMSO in normal saline, as the negative control. In group II, the mice were intraperitoneally treated with borapetoside A (0.1-10 mgkg^−1). In […], the mice received intraperitoneally metformin (300 mgkg^−1; Sigma Chemical Co., St. Louis, Mo., U.S.A.) or insulin (0.5 IUkg^−1; Insulin Actrapid® HM; Novo Nordisk, Denmark). In the acute study, mice under anesthesia received a single intraperitoneal administration of borapetoside A, negative control, or positive control. In the subacute study, mice received intraperitoneal administrations of borapetoside A, vehicle, or insulin twice a day for seven days.
(§2) Blood samples were collected from the orbital vascular plexus of the mice under anesthesia. Blood samples were then centrifuged at 13000 rpm for 5 min, and the plasma samples were collected and kept on ice prior to the assay. The plasma glucose concentration was measured by Glucose Kit Reagent (Biosystems S.A., Barcelona, Spain) following the manufacturer's instructions, and the insulin levels were estimated using mouse insulin ELISA kit (Mercodia AB, Uppsala, Sweden).

Assay [2] can be described thus: Intraperitoneal glucose tolerance test. The settings on record: metformin-treated group, compared to the vehicle group, normal and type 2 DM mice. In kind it is in vivo, mice. Here is the method:
as §1, §2
The mice were maintained under anesthesia throughout the procedure. Glucose (2.0 gkg^−1) was administered intraperitoneally. Blood samples were collected from the orbital vascular plexus at 0, 30, 60, 120 min. The concentrations of the plasma glucose were measured, and the values of AUC were calculated accordingly.

Another assay concerns IL-6-treated C2C12 cells. The assay can be described thus: Glycogen content assay in IL-6-induced insulin resistant C2C12 cells. The settings on record: IL-6-treated C2C12, 1 nM insulin, 30 minutes. The format is cell-based. On the procedure: The C2C12 skeletal muscle cells were cultured in Dulbecco's modified Eagle's medium (DMEM; Gibco/Invitrogen, Carlsbad, Calif.), and the human hepatocellular carcinoma cell line, Hl-ep3B, was cultured in Roswell Park Memorial Institute medium 1640 (RPMI 1640 medium; Gibco/Invitrogen, Carlsbad, Calif.). Cells were cultured at 37° C. in the humidified incubator supplied with 5% CO2. Culture mediums were supplemented with 4.5 mgmL^−1 glucose, penicillin 100 IUmL^−1, streptomycin 100 μgmL^−1 and 10% fetal bovine serum (Gibco/Invitrogen, Carlsbad, Calif.). Only C2C12 cells were then switched to 2% horse serum for 3 days after reaching the 70% confluence. Myotubes formation was achieved after 4 days of incubation, and the cells were used for subsequent experiments. Culture mediums were replaced by serum free DMEM or RPMI for 24 h before experiments (see e.g., procedure described in Sultan et al., 2006).
C2C12 and Hep3B cells were treated with 1 nM insulin, 100 μM metformin, and the assigned concentration of borapetoside A for 30 minutes. To develop the insulin resistance state of cells, C2C12 cells were incubated with IL-6 at 20 ngmL^−1 for 1 hour. Later, the cells were treated with 1 nM insulin, 100 μM metformin, and the assigned concentration of borapetoside A for 30 minutes. After the assigned treatment, cells were washed twice with phosphate buffered saline (PBS). Glycogen content was measured as previously described, with some modifications (see e.g., Savage et al., 2008). The protein concentrations of the cell lysates were determined by using Pierce BCA Protein Assay Kit (Thermo-Scientific, Rockford, Ill.). The glycogen content of each sample was normalized by total protein.

For another assay, the system named is liver. The experiment in a line: Glycogen content in liver in vivo. The arrangement: species or system mice. The settings on record: mice with type 2 DM, insulin 0.5 IUkg^−1 i.p. Here is the method:
(§3) The mice were injected with borapetoside A (10 mgkg^−1, interperitoneal) for 60 minutes or insulin (0.5 IUkg^−1, interperitoneal) for 30 minutes. After the treatment, the anesthetic mice were sacrificed by cervical dislocation to collect the soleus muscle and liver. About 40 mg of each sample was dissolved in 1 mol/L KOH at 75° C. for 30 min. The dissolved homogenate was neutralized by glacial acetic acid and then incubated overnight in acetate buffer (0.3 mol/L sodium acetate, pH 4.8) containing amyloglucosidase (Sigma, St. Louis, Mo.). The mixture was then neutralized with 1 mol/L NaOH to stop the reaction. The glycogen contents in the tissue samples were determined as μg of glucose per mg of tissue (wet weight).

For the next assay, the system named is soleus muscle. The assay can be described thus: Glycogen content in soleus muscle in vivo. Further details: species or system mice. As to conditions: mice with type 2 DM, insulin 0.5 IUkg^−1 i.p. Here is the method:
as §3

As for `CN(C)C(=N)N=C(N)N` [Metformin, metformin, reference compound], the Plasma insulin came to 22.7 ± 0.3 pmol/L in assay [1] (T1DM mice, metformin 300 mgkg^−1, after-treatment); 22.4 ± 0.4 pmol/L in assay [1] (T1DM mice, metformin 300 mgkg^−1, before-treatment); 182.0 ± 27.7 pmol/L in assay [1] (T2DM mice, metformin 300 mgkg^−1, after-treatment); 148.1 ± 15.2 pmol/L in assay [1] (T2DM mice, metformin 300 mgkg^−1, before-treatment); 72 ± 3.1 pmol/L in assay [1] (normal mice, metformin 300 mgkg^−1, after-treatment); 66.6 ± 1.3 pmol/L in assay [1] (normal mice, metformin 300 mgkg^−1, before-treatment). In addition, in assay [2], the “increase of plasma glucose level at 30 min” value is given as “significantly suppressed”.
On to “insulin: short-acting insulin, Insulin Actrapid HM (Novo Nordisk), positive control 0.5 IUkg^−1 [reference compound]”, for which, in the assay with IL-6-treated C2C12 cells, the glycogen content result is on record as “not increased”. The “glycogen synthesis in liver” value in the assay with liver is recorded as “failed to enhance”. The “glycogen synthesis in soleus muscle” value in the assay with soleus muscle was “failed to enhance”.
